From patent US6784201B2, “Benzothiepines having activity as inhibitors of ileal bile acid transport and taurocholate uptake” (G.D. Searle & Company, priority 1994, dated 2004)

Target: T1, human IBAT (Homo sapiens, UniProt Q12908)
T1 construct: expressed in transfected cells; host or cells: Baby hamster kidney (BHK) cells, clone H14
T1 sequence (Q12908 1-348): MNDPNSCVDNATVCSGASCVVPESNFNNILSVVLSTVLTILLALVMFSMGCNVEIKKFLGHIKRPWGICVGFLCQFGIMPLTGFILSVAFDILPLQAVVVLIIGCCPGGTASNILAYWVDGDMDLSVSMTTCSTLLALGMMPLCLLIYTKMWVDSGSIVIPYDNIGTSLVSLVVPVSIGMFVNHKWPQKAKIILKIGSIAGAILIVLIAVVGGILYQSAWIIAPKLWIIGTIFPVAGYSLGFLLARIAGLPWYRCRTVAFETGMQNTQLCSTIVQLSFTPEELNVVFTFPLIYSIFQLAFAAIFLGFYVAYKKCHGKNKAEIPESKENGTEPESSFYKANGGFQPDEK
Assay: In vitro assay of IBAT-mediated uptake of [14C]-taurocholate (TC) in H14 cells
Type: cell-based
Details: 6 μM
Description: In Vitro Assay of Compounds that Inhibit IBAT-Mediated Uptake of [^14C]-Taurocholate (TC) in H14 Cells
Baby hamster kidney cells (BHK) transfected with the cDNA of human IBAT (H14 cells) are seeded at 60,000 cells/well in 96 well Top-Count tissue culture plates for assays run within in 24 hours of seeding, 30,000 cells/well for assays run within 48 hours, and 10,000 cells/well for assays run within 72 hours.
On the day of assay, the cell monolayer is gently washed once with 100 μl assay buffer (Dulbecco's Modified Eagle's medium with 4.5 g/L glucose+0.2% (w/v) fatty acid free bovine serum albumin-(FAF)BSA). To each well 50 μl of a two-fold concentrate of test compound in assay buffer is added along with 50 μl of 6 μM [^14C]-taurocholate in assay buffer (final concentration of 3 μM [^14C]-taurocholate). The cell culture plates are incubated 2 hours at 37° C. prior to gently washing each well twice with 100 μl 4° C. Dulbecco's phosphate-buffered saline (PBS) containing 0.2% (w/v) (FAF)BSA. The wells are then gently washed once with 100 μl 4° C. PBS without (FAF)BSA. To each 200 μl of liquid scintillation counting fluid is added, the plates are heat sealed and shaken for 30 minutes at room temperature prior to measuring the amount of radioactivity in each well on a Packard Top-Count instrument.

| inhibition at 6 µM | SMILES |
| --- | --- |
| 90% | CCCC[C@]1(CC)CS(=O)(=O)c2ccc(N)cc2[C@H](c2ccccc2)[C@@H]1O [Example 63, (3α,4α,5α) 3-Butyl-3ethyl-4-hydroxy-7-amino-5-phenyl-2,3,4,5-tetrahydrobenzothiepine-1,1-dioxide] |
| 100% | CCCC[C@]1(CC)CS(=O)(=O)c2ccc(N)cc2[C@@H](c2ccccc2)[C@H]1O [Example 64, (3α,4β,5β) 3-Butyl-3-ethyl-4-hydroxy-7-amino-5-phenyl-2,3,4,5-tetrahydrobenzothiepine-1,1-dioxide] |

Same assay, conditions: H14 cells, Table 5; read-out: IC50 uM (In vitro Taurocholate Cell Uptake)

| IC50 | SMILES |
| --- | --- |
| 10 µM | CCCC[C@]1(CC)CSc2ccccc2[C@@H](c2ccccc2)[C@H]1O [Example 62, (3α,4β,5β) 3-Butyl-3-ethyl-4-hydroxy-5-phenyl-2,3,4,5-tetrahydrobenzothiepine] |

Same assay, conditions: Human TC IC50

| SMILES | IC50 |
| --- | --- |
| CCCC[C@]1(CC)CS(=O)(=O)c2ccc(N(C)C)cc2[C@@H](c2ccccc2)[C@H]1O [Example 104] | 0.0056 µM |
| CCCCC1(CC)CS(=O)(=O)c2ccc(OCCCCCCOc3ccc4c(c3)C(c3ccccc3)C(O)C(CC)(CCCC)CS4(=O)=O)cc2C(c2ccccc2)C1O (centres unmarked) [Example 139] | > 25 µM |

Same assay, conditions: read-out: Human TC IC50

| IC50 | SMILES |
| --- | --- |
| 0.054 µM | CCCCC1(CCCC)CS(=O)(=O)c2ccc(N)cc2[C@@H](c2ccccc2)[C@H]1O [Example 290] |
| 0.046 µM | CCCCC1(CCCC)CS(=O)(=O)c2ccc(N)cc2[C@@H](c2ccc(F)cc2)[C@H]1O [Example 292] |
| 0.013 µM | CCCCC1(CCCC)CS(=O)(=O)c2ccc(N(C)C)cc2C(c2ccccc2)C1O (centres unmarked) [Example 294] |
| 1.3 µM | CCCC[C@]1(CC)CS(=O)(=O)c2ccc(N)cc2[C@@H](c2ccc(OCCOCCOCCI)cc2)[C@H]1O [Example 295] |
| 1.6 µM | CCCCC1(CC)CS(=O)(=O)c2ccc(N)cc2C(c2ccc(OCCOCCOCC[N+](C)(C)C)cc2)C1O (centres unmarked) [Example 296] |
| 0.0004 µM | CCCCC1(CCCC)CS(=O)(=O)c2ccc(N(C)C)cc2C(c2cccc(NC(=O)CCCC[N+](CC)(CC)CC)c2)C1O (centres unmarked) [Example 1005] |
| 0.001 µM | CCCCC1(CCCC)CS(=O)(=O)c2ccc(N(C)C)cc2C(c2ccc(OCCOCC[N+]3(C)CCN(C)CC3)c(F)c2)C1O (centres unmarked) [Example 1006] |
| 0.001 µM | CCCCC1(CCCC)CS(=O)(=O)c2ccc(N(C)C)cc2C(c2cccc(OCCOCCOCC[N+](CC)(CC)CC)c2)C1O (centres unmarked) [Example 1007] |
| 0.001 µM | CCCCC1(CCCC)CS(=O)(=O)c2ccc(N(C)C)cc2C(c2cccc(OCCOCCOCC[n+]3ccccn3)c2)C1O (centres unmarked) [Example 1008] |
| 0.001 µM | CCCCC1(CCCC)CS(=O)(=O)c2ccc(N(C)C)cc2C(c2cccc(OCCOCCOCC[n+]3ccc(N(C)C)cc3)c2)C1O (centres unmarked) [Example 1009] |
| 0.001 µM | CCCCC1(CCCC)CS(=O)(=O)c2ccc(N(C)C)cc2C(c2ccc(OC)c(F)c2)C1O (centres unmarked) [Example 1010] |
| 0.001 µM | CCCCC1(CCCC)CS(=O)(=O)c2ccc(N(C)C)cc2C(c2ccc(OCCCCC[N+](CC)(CC)CC)c(F)c2)C1O (centres unmarked) [Example 1011] |
| 0.0015 µM | CCCCC1(CCCC)CS(=O)(=O)c2c(OC)cc(N(C)C)cc2C(c2ccc(O)cc2)C1O (centres unmarked) [Example 1012] |
| 0.002 µM | CCCCC1(CCCC)CS(=O)(=O)c2ccc(N(C)C)cc2C(c2ccc(OCCOCCOCC[N+](C)(C)C)c(F)c2)C1O (centres unmarked) [Example 1013] |
| 0.002 µM | CCCCC1(CCCC)CS(=O)(=O)c2c(OC)cc(N(C)C)cc2C(c2ccc(OC)cc2)C1O (centres unmarked) [Example 1014] |
| 0.002 µM | CCCCC1(CCCC)CS(=O)(=O)c2ccc(N(C)C)cc2C(c2ccc(OCCOCC[N+]3(C)CCCC3)c(F)c2)C1O (centres unmarked) [Example 1015] |

The next lines start with the compound.

| SMILES | IC50 |
| --- | --- |
| CCCC[C@]1(CC)CS(=O)(=O)c2ccc([N+](C)(C)C)cc2[C@@H](c2ccccc2)[C@H]1O [Example 102] | 0.083 µM |
| CCCCC1(CC)CS(=O)(=O)c2ccc(NS(C)(=O)=O)cc2C(c2ccccc2)C1O (centres unmarked) [Example 105] | 0.6 µM |
| CCCCC1(CC)CS(=O)(=O)c2ccc(NC(=O)CBr)cc2C(c2ccccc2)C1O (centres unmarked) [Example 106] | 0.8 µM |
| CCCCCC(=O)Nc1ccc2c(c1)C(c1ccccc1)C(O)C(CC)(CCCC)CS2(=O)=O (centres unmarked) [Example 108] | 0.3 µM |
| CCCCC1(CC)CS(=O)(=O)c2ccc(NC(C)=O)cc2C(c2ccccc2)C1O (centres unmarked) [Example 110] | 0.09 µM |
| CCCC[C@@]1(CC)CS(=O)(=O)c2ccc(N)cc2[C@@H](c2ccc(O)cc2)[C@H]1O [Example 111] | 2.5 µM |
| CCCC[C@]1(CC)CS(=O)(=O)c2ccc(N)cc2[C@@H](c2ccc(OCCOCCOCCOc3ccc([C@H]4c5cc(N)ccc5S(=O)(=O)C[C@](CC)(CCCC)[C@H]4O)cc3)cc2)[C@H]1O [Example 112] | 3 µM |
| CCCC[C@]1(CC)CS(=O)(=O)c2ccc(N)cc2[C@@H](c2ccc(O)cc2)[C@H]1O [Example 113] | 0.1 µM |
| CCCCC1(CC)CS(=O)(=O)c2ccc(N)cc2C(c2ccc(OC)cc2)C1O (centres unmarked) [Example 114] | 0.19 µM |
| CCCCC1(CC)CS(=O)(=O)c2ccc(NC(=O)OCc3ccccc3)cc2C(c2ccccc2)C1O (centres unmarked) [Example 118] | 0.4 µM |
| CCCCCCNc1ccc2c(c1)C(c1ccccc1)C(O)C(CC)(CCCC)CS2(=O)=O (centres unmarked) [Example 123] | 1.67 µM |
| CCCC[C@]1(CC)CS(=O)(=O)c2cc(OCCOCCOCC[N+](C)(C)C)ccc2[C@@H](c2ccccc2)[C@H]1O [Example 125] | 18 µM |
| CCCCC1(CC)CS(=O)(=O)c2ccc(NC(=O)OCc3ccccc3)cc2C(c2ccc(F)cc2)C1O (centres unmarked) [Example 128] | 0.7 µM |
| CCCC[C@]1(CC)CS(=O)(=O)c2cc(OCCOCCOCCI)ccc2[C@@H](c2ccccc2)[C@H]1O [Example 134] | 0.3 µM |
| CCCC[C@]1(CC)CS(=O)(=O)c2cc(O)ccc2[C@@H](c2ccccc2)[C@H]1O [Example 136] | 0.09 µM |
| CCCCC1(CC)CS(=O)(=O)c2cc(OC(C)=O)ccc2C(c2ccccc2)C1O (centres unmarked) [Example 138] | 3 µM |
| CCCCC1(CC)CS(=O)(=O)c2ccc(N3CCC3)cc2C(c2ccc(F)cc2)C1O (centres unmarked) [Example 144] | 0.053 µM |
| CCCCC1(CC)CS(=O)(=O)c2ccc(O)cc2C(c2cccc(O)c2)C1O (centres unmarked) [Example 266] | 0.5 µM |
| CCCCC1(CC)CS(=O)(=O)c2ccc(OC)cc2C(c2cccc(O)c2)C1O (centres unmarked) [Example 267] | 0.073 µM |
| CCCCC1(CC)CS(=O)(=O)c2ccc(OC)cc2C(c2ccc(F)cc2)C1O (centres unmarked) [Example 268] | 0.029 µM |
| CCCCC1(CC)CS(=O)(=O)c2ccc(OC)cc2C(c2ccc(F)cc2)C1O (centres unmarked) [Example 269] | 0.08 µM |
| CCCCC1(CC)CS(=O)(=O)c2ccc(O)cc2C(c2ccc(F)cc2)C1O (centres unmarked) [Example 270] | 0.12 µM |
| CCCCC1(CC)CS(=O)(=O)c2ccc(F)cc2C(c2cccc(OC)c2)C1O (centres unmarked) [Example 276] | 0.23 µM |
| CCCCC1(CC)CS(=O)(=O)c2ccc(OC)cc2C(c2cccc(F)c2)C1O (centres unmarked) [Example 277] | 0.04 µM |
| CCCCC1(CC)CS(=O)(=O)c2ccc(OC)cc2C(c2ccccc2F)C1O (centres unmarked) [Example 280] | 0.18 µM |
| CCCCC1(CC)CS(=O)(=O)c2ccc(SC)cc2C(c2ccc(F)cc2)C1O (centres unmarked) [Example 281] | 0.019 µM |
| CCCCC1(CC)CS(=O)(=O)c2ccc(N3CCOCC3)cc2C(c2ccc(F)cc2)C1O (centres unmarked) [Example 284] | 0.08 µM |
| CCC1(CC)CS(=O)(=O)c2ccc(N)cc2[C@@H](c2ccccc2)[C@H]1O [Example 287] | 4 µM |
| CCCC1(CCC)CS(=O)(=O)c2ccc(N)cc2[C@@H](c2ccccc2)[C@H]1O [Example 289] | 0.23 µM |
